Literature values, collected in patent US8058260B2, “2′-C-methyl-ribofuranosyl cytidine prodrugs, pharmaceutical compositions and uses thereof” (XenoPort, Inc., priority 2006, dated 2011).
Where two headings read alike, the source gives them in different places.

Assays:
HCV NS5B polymerase = HCV NS5B polymerase (Hepatitis C virus genotype 1b, UniProt P26663)
[1] = human, in vivo
HCV = settings: clinical evaluation as a treatment for HCV

HCV NS5B polymerase, sequence (P26663 2420-3010): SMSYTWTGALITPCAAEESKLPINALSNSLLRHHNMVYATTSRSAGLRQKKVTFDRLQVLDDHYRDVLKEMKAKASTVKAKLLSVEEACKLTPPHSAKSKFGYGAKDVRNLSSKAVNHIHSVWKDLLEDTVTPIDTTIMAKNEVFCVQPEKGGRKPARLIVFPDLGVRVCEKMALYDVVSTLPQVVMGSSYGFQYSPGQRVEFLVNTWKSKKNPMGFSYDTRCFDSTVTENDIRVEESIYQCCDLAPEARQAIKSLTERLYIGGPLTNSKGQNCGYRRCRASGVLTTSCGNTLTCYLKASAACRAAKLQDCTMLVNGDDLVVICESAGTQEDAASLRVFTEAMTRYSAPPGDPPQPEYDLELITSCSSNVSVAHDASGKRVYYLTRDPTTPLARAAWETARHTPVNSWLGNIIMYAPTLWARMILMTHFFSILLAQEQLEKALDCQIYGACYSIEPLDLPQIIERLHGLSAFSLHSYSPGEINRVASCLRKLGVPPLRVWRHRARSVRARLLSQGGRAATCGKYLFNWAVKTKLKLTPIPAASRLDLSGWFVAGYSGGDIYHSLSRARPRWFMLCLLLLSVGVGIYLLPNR

Row | inhibitory activity against the HCV NS5B polymerase (HCV NS5B polymerase) | SMILES | gastrointestinal toxicity / side-effects (oral administration, nausea, vomiting, diarrhea in some patients) | gastrointestinal toxicity / side-effects (in vivo, po) | bioavailability [1] | antiviral activity (HCV)
1 | potent inhibitory activity | C[C@@]1(O)[C@H](O)[C@@H](CO)O[C@H]1n1ccc(N)nc1=O [β-D-2′-C-methyl-ribofuranosyl cytidine] | gastrointestinal (GI) toxicity | – | – | –
2 | – | CC(C)[C@H](N)C(=O)O[C@@H]1[C@@H](CO)O[C@@H](n2ccc(N)nc2=O)[C@]1(C)O [NM 283, 3′-O-L-valinyl ester of β-D-2′-C-methyl-ribofuranosyl cytidine] | – | gastrointestinal side-effects | good bioavailability | significant antiviral activity
